Measured values as given in US5260189A, “Synthetic HIV-like peptides their compositions and uses” (Immunodiagnostics, Inc., priority 1992, dated 1993).
“Also recorded” adds a separate entry of the source.

Assays:
[1] = test system: antibodies to HIV-1; experiment: EIA of peptide-protein conjugates coated on polystyrene microtiter plates, human sera; format: binding; details: for immunoreactivity with HIV-1 antibodies (FIG. 1): C-terminal BSA-SMCC conjugates, 10 micrograms peptide/ml coating, 1:101 dilution of pooled HIV+ / HIV- sera
Experimental: (§1) The free peptides or peptide-protein conjugates of FIGS. 1-13 were initially screened for immunoreactivity by coating each well of polystyrene microtiter EIA plates (Costar, Cambridge, Mass., U.S.A.) with 0.2 ml amounts of concentrations of 5-50 micrograms/ml peptide in Tris buffer, 10 mM, pH 8.0, at 4° C. overnight. Peptides or peptide-protein conjugates showing immunoreactivity by EIA were then further diluted for coating to determine the minimal concentrations required that allowed maximal immunoreactivity with antibodies to HIV, and minimal nonspecific reactivity with normal sera. The EIA tests were performed as follows: The coating solution was removed from each well and the wells were blocked at 37° C. for 30 minutes with a solution of 50 mM phosphate, 100 mM NaCl, pH 7.4, 1% BSA, 0.5% gelatin. The wells were then aspirated dry with a microtiter plate washer and washed 3 times with a solution of 50 mM phosphate, 100 mM NaCl, 0.05% Tween 20, pH 7.4 (PBST). A 1:101 dilution (in PBST with 1% BSA, 1% NRS) of the primate serum to be tested was then added as 0.2 ml to each washed well and the plates were incubated at 37° C. for 30 minutes. The plates were then washed×3 with PBST, and 0.2 ml amounts of a 1:2000 dilution of goat anti-human (GAH) peroxidase enzyme conjugate (Organon Teknika, Cappel, Melvern, Pa., U.S.A.) that recognized human IgG, IgA, and IgM were added to each well, and the plates were incubated for 30 minutes at 37° C. The plates were then washed×3 with PBST and incubated with 0.2 ml/well substrate consisting of 0.1M citric acid pH 5.2, 0.1 mg/ml o-phenylene diamine, 0.01% H2 O2, at room temperature in the dark for 10 minutes. Reactions were stopped with 50 microliters of 4N H2 SO4, and the color development was quantitated in a Multiscan plate reader at A492. In each series of experiments positive and negative controls were included, and all tests were done in duplicate or quadruplicate. Most peptides and peptide conjugates were initially screened against a 1:101 dilution of pools of HIV positive or HIV negative sera, and the same serum pool was used to allow quantitative comparison of immunoreactivity of different free peptides or peptide-protein conjugates.
(§2) The peptides in FIGS. 1 and 5 were synthesized as described in Example 1 and conjugated to KLH or BSA as described in Example 2. These peptide-protein conjugates were coated to polystyrene microtiter plates all at a concentration 10 micrograms peptide/ml and evaluated for immunoreactivity as described in Example 3, using a 1:101 dilution of a pool of sera (HIV+/SIV+, respectively) containing antibodies to HIV-1 (FIG. 1) or to HIV-2 (FIG. 5), as well as pooled serum (HIV-/SIV-, respectively) containing no antibodies to HIV-1 or HIV-2. […] Since sera from patients infected with HIV-2 are relatively unavailable in the United States, the immunoreactivity of HIV-2 synthetic peptides was assessed using serum from macaques infected with SIV, obtained from the University of Washington Primate Center, Seattle, Wash., U.S.A. The AA sequence of SIV is nearly identical to HIV-2 in the region of the peptides synthesized (see Myers et al., Human Retroviruses and AIDS, 1988. A compilation of nucleic acid and amino acid sequences. Los Alamos National Laboratory, Los Alamos, N. Mex., 87545, USA).

[2] = test system: antibodies to SIV/HIV-2; experiment: EIA of peptide-protein conjugates coated on polystyrene microtiter plates, macaque sera; format: binding, rhesus macaque (Macaca mulatta); details: for discrimination of positive from negative macaque sera (FIG. 7): peptide-BSA conjugates; for immunoreactivity with SIV/HIV-2 antibodies (FIG. 5): C-terminal BSA-SMCC conjugates, 10 micrograms peptide/ml coating, 1:101 dilution of pooled SIV+ / SIV- macaque sera
Description: For all of the immunoassays employing human serum, the serum samples were obtained from the King County Health Department, Seattle, Wash., U.S.A., and each serum had been characterized as positive or negative with respect to antibodies to HIV-1, as determined by testing with the commercially licensed Genetic Systems and or DuPont EIA tests. Serum from rhesus macaque monkeys (Macaca mulatta) was obtained from the University of Washington, Seattle, Wash., U.S.A., and had been characterized by a SIV whole virus lysate EIA as either containing or not containing antibodies to SIV which is nearly identical in sequence to HIV-2 in the region of the peptide epitopes studied.
as §1, §2

[3] = test system: antibodies to HIV-1; experiment: EIA of p24 synthetic peptide-BSA conjugates with serum pools and individual sera; format: binding, human
Experimental: as §1
FIG. 8 illustrates the immunoreactivity and AA sequences of synthetic peptides of the p24 protein of HIV-1, when conjugated to BSA via their C-termini using SMCC, and reacted with a pool of approximately 50 sera from persons containing antibody to HIV-1, or with a pool of approximately 30 sera from individuals devoid of antibody to HIV-1. […] No negative sera (0/85, 0%) reacted, and 17 positive sera (17/98, 17%) were immunoreactive. It has been reported that individuals lose antibodies to p24 during the course of progression from asymptomatic infection to clinical disease and AIDS (Franchini et al., Blood 69:(2):437-441, 1987, and Weber et al., Lancet i:119-122, 1987), which may explain the lower frequency of antibodies to this peptide in the sera tested.

[4] = test system: Antibodies to HIV-2; experiment: Detection of seroconversion in macaques experimentally infected with SIV, EIA; format: binding, macaque
Experimental: as §1
The immunoreactivity of the HIV-2 peptide BSA conjugates 2S24, (2S24 plus 5S86), and 5S92 was evaluated for detection of seroconversion in macaques using serial sera collected over a 16 week period from 7 macaques experimentally infected with SIV at week 0.

[5] = BSA-SMCC conjugate, 85 individual sera without antibodies to HIV-1
[6] = BSA-SMCC conjugate, 98 individual sera containing antibodies to HIV-1

For QQLLGIWGCSGKLICGC [3S36], the “immunoreactivity with HIV-1 antibodies (FIG. 1)” value (“immunoreactivity … (FIG. 1)” for short) [1] was “Significant immunoreactivity”.

LLGIWGCSGKLICTTGC [2S06] was tested, and the “immunoreactivity … (FIG. 1)” value [1] was “Significant immunoreactivity”.

In the case of CSGKLICTTAVPWNAGC [3S51], the “immunoreactivity … (FIG. 1)” value [1] is reported as “Significant immunoreactivity; also recorded: higher reactivity”.

For SGKLICTTAVPWNASGC [2S13], the “immunoreactivity … (FIG. 1)” value [1] was “Significant immunoreactivity; also recorded: higher reactivity”.

For “RILAVERYLKDQQLLGIWGCSGKLIC [4S25, reference compound]”, the “immunoreactivity … (FIG. 1)” value [1] was “Significant immunoreactivity; also recorded: lower immunoreactivity; also recorded: lower or comparable immunoreactivity”.

For “SWGCAFRQVCHTSVPGC [5S86, HIV-2/SIV natural peptide]”, the “discrimination of positive from negative macaque sera (FIG. 7)” value (“discrimination of positive” below) [2] was “most favorable performances”.

With KLICTTAVPWNASWSGC [2S15] the “immunoreactivity … (FIG. 1)” value [1] was “Significant immunoreactivity; also recorded: higher reactivity”.

For IWGCSGKLICTTAVPGC [2S09], the “immunoreactivity with individual positive sera (FIGS. 10B, 10C)” value ([1]; BSA-SMCC conjugate, 98 HIV-1 antibody positive human sera) was “some positive samples had very low immunoreactivity” and the “immunoreactivity … (FIG. 1)” value [1] was “Significant immunoreactivity; also recorded: slightly superior immunoreactivity; also recorded: maximally immunoreactive; also recorded: higher reactivity”.

“ALGPAATLEEMMTACGC [5S94, HIV-1 p24 peptide with GC tail]” was tested, and the negative sera reacting [3, 5] was 0/85, the “negative sera reacting, percent” value [3, 5] was 0% and the positive sera immunoreactive [3, 6] was 17/98. For the same sequence, the “positive sera immunoreactive, percent” value [3, 6] was 17% and the “immunoreactivity with serum pools (FIG. 8)” value ([3]; BSA-SMCC conjugates, pool of approximately 50 HIV+ sera and approximately 30 HIV- sera) was “immunoreactive peptide; also recorded: significant immunoreactivity”.

With DQARLNSWGCAFRQVC [2S24] the “immunoreactivity with SIV/HIV-2 antibodies (FIG. 5)” value [2] was “Significant immunoreactivity; also recorded: best immunoreactivity; also recorded: maximally immunoreactive”, the “discrimination of positive” value [2] was “most favorable performances” and the “Reactivity by Peptide-BSA Conjugate (reactive macaques/7)” value (from here on “Reactivity by Peptide-BSA Conjugate”) ([4]; Week 0 (SIV infection at week 0)) was 0/7. For the same sequence, the “Reactivity by Peptide-BSA Conjugate” value ([4]; Week 1) was 0/7, the “Reactivity by Peptide-BSA Conjugate” value ([4]; Week 2) was 1/7 and the “Reactivity by Peptide-BSA Conjugate” value ([4]; Week 3) was 2/7. The “Reactivity by Peptide-BSA Conjugate” value ([4]; Week 4) was 4/7, the “Reactivity by Peptide-BSA Conjugate” value ([4]; Week 6) was 6/7 and the “Reactivity by Peptide-BSA Conjugate” value ([4]; Week 8) was 7/7. The “Reactivity by Peptide-BSA Conjugate” value ([4]; Week 12) was 7/7 and the “Reactivity by Peptide-BSA Conjugate” value ([4]; Week 16) was 7/7.

For SWGCAFRQVCHTTVPGC [2S27], the “immunoreactivity with SIV/HIV-2 antibodies (FIG. 5)” value [2] was “Significant immunoreactivity; also recorded: best immunoreactivity; also recorded: maximally immunoreactive” and the “discrimination of positive” value [2] was “most favorable performances”.

YLKDQQLLGIWGCSGC [2S03] was tested, and the “immunoreactivity … (FIG. 1)” value [1] was “significantly less immunoreactive”.

With GCSGKLICTTAVPWNGC [2S11] the “immunoreactivity … (FIG. 1)” value [1] was “Significant immunoreactivity; also recorded: higher reactivity”.

In the case of ERYLKDQQLLGIWGC [2S02], the “immunoreactivity … (FIG. 1)” value [1] is reported as “significantly less immunoreactive”.

In the case of LGIWGCSGKLICTTAGC [2S07], the “immunoreactivity … (FIG. 1)” value [1] is reported as “Significant immunoreactivity”.

With KDQQLLGIWGCSGKLGC [2S04] the “immunoreactivity … (FIG. 1)” value [1] was “Significant immunoreactivity”.

“IKQLQARILAVERYLKDQQ [4S24, reference compound]” was tested, and the “immunoreactivity … (FIG. 1)” value [1] was “lower immunoreactivity”.

“IWGCSGKMICTTAVPGC [5S76, unnatural variant of HIV-1 gp41 peptide 2S09]” was tested, and the “number of positive samples giving A492 less than 1.0” value ([1]; BSA-SMCC conjugate, 98 positive human sera (FIGS. 11A, 11B)) was “Five”.

GKLICTTAVPWNASWGC [3S55] was tested, and the “immunoreactivity … (FIG. 1)” value [1] was “Significant immunoreactivity; also recorded: higher reactivity”.

With AVERYLKDQQLLGC [2S01] the “immunoreactivity … (FIG. 1)” value [1] was “significantly less immunoreactive”.
